In PubChem BioAssay (NCI) one finds GI50 and TGI data, which are given here for eight compounds.

Several values for one entry are separate records, joined by “and”; a condition that tells them apart may be missing. Equal values may be shown once.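 Each compound was tested at five concentrations against cells in 96-well plates for 48 hours. At the GI50, growth is halved. TGI denotes the concentration required for complete inhibition of growth.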 Some results are limits rather than exact numbers.

Test systems include HOP-62 NSCLC; SK-MEL-2 melanoma; T-47D breast; HCT-116 colon; SK-MEL-28 melanoma; KM12 colon; OVCAR-3 ovarian; 786-0 renal; HOP-92 NSCLC; NCI/ADR-RES ovarian.
Common to all, as to assay: inhibition of tumour cell growth, NCI panel, 48 h

In the case of `COC1CC(C)C(OC)c2cc(O)cc(c2O)NC(=O)/C(C)=C/C=C\C(C)C(OC(N)=O)/C(C)=C\C(C)C1OC` (centres undefined), the GI50 in the experiment on HOP-62 NSCLC was 0.413 µM; in the experiment on SK-MEL-2 melanoma, 0.683 µM and 1.16 µM; in the experiment on T-47D breast it was 0.446 µM; in the experiment with HCT-116 colon it was 0.0642 µM and 0.571 µM; in the experiment with SK-MEL-28 melanoma, 0.291 µM; in the experiment with KM12 colon it was 0.111 µM and 0.184 µM. Also, the GI50 was 0.938 µM and 0.552 µM and 0.186 µM in the experiment with OVCAR-3 ovarian; 4.62 µM in the experiment with 786-0 renal; 0.234 µM in the experiment with HOP-92 NSCLC. Moreover, the TGI is 36.9 µM and 12.2 µM with HOP-62 NSCLC; 16 µM and 11.9 µM in the experiment with SK-MEL-2 melanoma; 18.6 µM and 12.9 µM in the experiment on T-47D breast; 8.1 µM and 9.01 µM with HCT-116 colon; 6.89 µM and 9.62 µM in the experiment on SK-MEL-28 melanoma; 1.9 µM and 2.83 µM in the experiment with KM12 colon. The TGI in the experiment on OVCAR-3 ovarian is 5.31 µM and 7.4 µM; with 786-0 renal it was 11.5 µM and 24.3 µM; with HOP-92 NSCLC, 12.1 µM and 2.79 µM.
Regarding `COc1ccc(C(C#N)=C2C=CC(=NO)C=C2)cc1`, the GI50 with HOP-62 NSCLC is 2.47 µM; with NCI/ADR-RES ovarian, 3.38 µM; with SK-MEL-2 melanoma, 2.59 µM; with T-47D breast it was 1.76 µM; in the experiment on HCT-116 colon, 2.27 µM; in the experiment on SK-MEL-28 melanoma, 28.7 µM. In addition, the GI50 with KM12 colon is 1.79 µM; in the experiment with OVCAR-3 ovarian, 4.31 µM; with 786-0 renal it was 4.95 µM. For the same compound, the TGI in the experiment on HOP-62 NSCLC was 6.5 µM; in the experiment with NCI/ADR-RES ovarian it was 13.3 µM; in the experiment on SK-MEL-2 melanoma, 6.18 µM; with T-47D breast, 5.36 µM; in the experiment with HCT-116 colon it was 5.55 µM; in the experiment on SK-MEL-28 melanoma it was 86.7 µM. In addition, the TGI with KM12 colon came out at 4.04 µM; in the experiment with OVCAR-3 ovarian it was 13.4 µM; in the experiment on 786-0 renal, 15.3 µM.
Regarding `O=c1cc(-c2ccccc2)oc2ccc(OC/C(=N/O)c3ccc(F)cc3)cc12`, the GI50 in the experiment on HOP-62 NSCLC was 8.79 µM; in the experiment with NCI/ADR-RES ovarian, 2.97 µM; in the experiment on SK-MEL-2 melanoma it was 12.3 µM; in the experiment with HCT-116 colon, 2.97 µM; in the experiment on SK-MEL-28 melanoma it was 3.33 µM; with KM12 colon, 1.6 µM. Further, the GI50 was 1.67 µM in the experiment with OVCAR-3 ovarian, 8.97 µM with 786-0 renal and 11.4 µM with HOP-92 NSCLC. The TGI was above 50 µM with HOP-62 NSCLC; 12.8 µM with NCI/ADR-RES ovarian; above 50 µM in the experiment with SK-MEL-2 melanoma; 9.05 µM in the experiment on HCT-116 colon; 16.2 µM with SK-MEL-28 melanoma; 6.01 µM with KM12 colon. Further, the TGI with OVCAR-3 ovarian is 7.2 µM; in the experiment with 786-0 renal, above 50 µM; in the experiment on HOP-92 NSCLC, 41.5 µM.
With `Cc1ccc2[nH]c3c(c2c1)N=c1ccccc1=NO3`, the GI50 is 22.7 µM with NCI/ADR-RES ovarian; above 100 µM in the experiment on SK-MEL-2 melanoma; 74.4 µM in the experiment with T-47D breast; 83.8 µM in the experiment with HCT-116 colon; above 100 µM in the experiment with SK-MEL-28 melanoma; 34.8 µM in the experiment with KM12 colon. The GI50 was 25.8 µM with OVCAR-3 ovarian, 35 µM with 786-0 renal and above 100 µM with HOP-92 NSCLC. The TGI is 71.2 µM with NCI/ADR-RES ovarian; above 100 µM in the experiment on SK-MEL-2 melanoma; above 100 µM in the experiment on T-47D breast; above 100 µM in the experiment with HCT-116 colon; above 100 µM in the experiment on SK-MEL-28 melanoma; above 100 µM with KM12 colon. In addition, the TGI with OVCAR-3 ovarian, in the experiment with 786-0 renal and in the experiment with HOP-92 NSCLC was above 100 µM throughout.
For the compound `COc1cc(OC)cc(-c2nc3sccn3c2/C=N/N=C(N)N)c1`, the GI50 in the experiment on HOP-62 NSCLC was 9.95 µM; in the experiment with NCI/ADR-RES ovarian, 26.4 µM; in the experiment on SK-MEL-2 melanoma, 16.7 µM; with T-47D breast, 7.23 µM; in the experiment on KM12 colon, 3.13 µM; in the experiment with OVCAR-3 ovarian, 5.52 µM. Also, in the experiment with 786-0 renal, the GI50 is 7.71 µM. For the same compound, the TGI in the experiment on HOP-62 NSCLC is 17 µM; in the experiment with NCI/ADR-RES ovarian, above 50 µM; in the experiment with SK-MEL-2 melanoma, above 50 µM; with T-47D breast it was 17.6 µM; with KM12 colon, 10.3 µM; in the experiment on OVCAR-3 ovarian, 12.3 µM. Besides, the TGI in the experiment on 786-0 renal stood at 14.4 µM.
Consider `Cc1ccc(-c2c(C#N)[n+](=O)c3cc(F)c(F)cc3n2[O-])cc1`, for which the GI50 in the experiment with HOP-62 NSCLC was 5.26 µM; with NCI/ADR-RES ovarian it was 2.83 µM; in the experiment on T-47D breast, 28.4 µM; with HCT-116 colon it was 1.23 µM; with SK-MEL-28 melanoma, 20.5 µM; in the experiment with KM12 colon, 9.9 µM. The GI50 in the experiment with OVCAR-3 ovarian is 1.77 µM; in the experiment on 786-0 renal, 1.54 µM; with HOP-92 NSCLC, 1.68 µM. Also, the TGI in the experiment on HOP-62 NSCLC was 19.7 µM; with NCI/ADR-RES ovarian, 9.2 µM; in the experiment with T-47D breast, 67.5 µM; in the experiment on HCT-116 colon, 5.21 µM; with SK-MEL-28 melanoma, 38.4 µM; in the experiment with KM12 colon, 28.3 µM. In addition, the TGI with OVCAR-3 ovarian stood at 3.61 µM; in the experiment with 786-0 renal, 3.53 µM; in the experiment with HOP-92 NSCLC it was 3.84 µM.
Take `O=C1OCC(c2ccc(O)cc2)=C1c1cc(O)c(O)c(O)c1`: the GI50 was 58.6 µM in the experiment on HOP-62 NSCLC; 25.2 µM in the experiment with NCI/ADR-RES ovarian; above 100 µM in the experiment with T-47D breast; 36 µM in the experiment on HCT-116 colon; above 100 µM with SK-MEL-28 melanoma; 89.3 µM with KM12 colon. The GI50 in the experiment on OVCAR-3 ovarian is 27.9 µM; in the experiment with 786-0 renal, 62.5 µM; in the experiment on HOP-92 NSCLC, above 100 µM. In addition, the TGI in the experiment on HOP-62 NSCLC was above 100 µM; in the experiment with NCI/ADR-RES ovarian it was 62.8 µM; in the experiment on T-47D breast it was above 100 µM; in the experiment with HCT-116 colon, above 100 µM; in the experiment with SK-MEL-28 melanoma, above 100 µM; in the experiment with KM12 colon, above 100 µM. Moreover, the TGI in the experiment on OVCAR-3 ovarian is 82.3 µM; in the experiment with 786-0 renal it was above 100 µM; in the experiment with HOP-92 NSCLC, above 100 µM.
For the compound `CCN(CC)CCCOc1ccc2ncnc(Nc3ccc(Oc4cccc(C(F)(F)F)c4)c(Cl)c3)c2c1`, the GI50 in the experiment on T-47D breast is 1.41 µM; in the experiment on SK-MEL-28 melanoma, 1.63 µM; with KM12 colon, 1.77 µM; with OVCAR-3 ovarian it was 1.45 µM; in the experiment on 786-0 renal, 1.54 µM; in the experiment on HOP-92 NSCLC it was 1.23 µM. The TGI in the experiment on T-47D breast amounted to 3.76 µM; with SK-MEL-28 melanoma it was 2.99 µM; in the experiment on KM12 colon, 3.24 µM; in the experiment with OVCAR-3 ovarian, 2.84 µM; in the experiment with 786-0 renal, 2.95 µM; in the experiment with HOP-92 NSCLC, 2.61 µM.
